# Assay results taken from article PMC4303209, “A novel phosphatidylinositol 3-kinase (PI3K) inhibitor directs a potent FOXO-dependent, p53-independent cell cycle arrest phenotype characterized by the differential induction of a subset of FOXO-regulated genes” (Breast Cancer Research : BCR, 2014).
# Tested on: MCF-7 breast cancer cells
# Test: Microarray gene expression analysis (Agilent whole human genome 4 x 44K; compound vs DMSO, LIMMA log2 fold change)
# Assay type: cell-based
# Settings: cell cycle genes
compound,measurement,setting,value
Cn1ncc2c(N3CCOCC3)nc(-c3cccc(O)c3)nc21 [ETP-45658],CDC25B log2FC,Gene 994,-0.243
same,CDC25C log2FC,Gene 995,1.417
same,CDC34 log2FC,Gene 997,0.349
same,CDC42 log2FC,Gene 998,0.143
same,CDK2 log2FC,Gene 1017,-0.519
same,CDK3 log2FC,Gene 1018,-0.108
same,CDK4 log2FC,Gene 1019,0.113
same,CDK5 log2FC,Gene 1020,-0.089
same,CDK7 log2FC,Gene 1022,0.920
same,CDKN1A log2FC,Gene 1026,-1.401
same,CDKN1B log2FC,Gene 1027,1.129
same,CDKN1C log2FC,Gene 1028,0.689
same,CDKN2A log2FC,Gene 1029,0.240
same,CDKN2D log2FC,Gene 1032,0.891
same,CDKN3 log2FC,Gene 1033,0.104
same,CENPA log2FC,Gene 1058,0.094
same,CENPE log2FC,Gene 1062,1.101
same,CENPF log2FC,Gene 1063,1.562
same,CETN2 log2FC,Gene 1069,0.059
same,CHD3 log2FC,Gene 1107,-0.048
same,CHEK1 log2FC,Gene 1111,0.461
same,CKS1B log2FC,Gene 1163,0.101
same,CKS2 log2FC,Gene 1164,-0.752
same,CLTC log2FC,Gene 1213,0.237
same,PLK3 log2FC,Gene 1263,-1.808
same,ATF2 log2FC,Gene 1386,0.857
same,CREBL2 log2FC,Gene 1389,0.823
same,MAPK14 log2FC,Gene 1432,-0.291
same,CSNK1A1 log2FC,Gene 1452,0.166
same,CSNK1D log2FC,Gene 1453,-0.308
same,CSNK1E log2FC,Gene 1454,-0.533
same,CSNK2A1 log2FC,Gene 1457,-0.545
same,CTBP1 log2FC,Gene 1487,-0.371
same,CTGF log2FC,Gene 1490,-0.597
same,CYLD log2FC,Gene 1540,0.499
same,CYP27B1 log2FC,Gene 1594,-0.054
same,DAPK3 log2FC,Gene 1613,-0.132
same,DDB1 log2FC,Gene 1642,0.227
same,DDIT3 log2FC,Gene 1649,2.364
same,DDX3X log2FC,Gene 1654,-1.156
same,DHCR24 log2FC,Gene 1718,-0.643
same,DHFR log2FC,Gene 1719,0.876
same,DLG1 log2FC,Gene 1739,0.053
same,DMRT1 log2FC,Gene 1761,0.148
same,DYNC1I2 log2FC,Gene 1781,0.828
same,DNM2 log2FC,Gene 1785,-0.047
same,DRD3 log2FC,Gene 1814,-0.082
same,DUSP1 log2FC,Gene 1843,-0.931
same,DUSP3 log2FC,Gene 1845,0.560
same,DYRK1A log2FC,Gene 1859,0.448
same,E2F1 log2FC,Gene 1869,-0.356
same,E2F2 log2FC,Gene 1870,-0.581
same,E2F3 log2FC,Gene 1871,-0.373
same,E2F4 log2FC,Gene 1874,-0.621
same,E2F5 log2FC,Gene 1875,0.382
same,E2F6 log2FC,Gene 1876,-0.321
same,E4F1 log2FC,Gene 1877,0.414
same,ECT2 log2FC,Gene 1894,1.058
same,EDN3 log2FC,Gene 1908,-0.056
same,EGF log2FC,Gene 1950,-0.024
same,EGFR log2FC,Gene 1956,0.311
same,EIF4EBP1 log2FC,Gene 1978,-0.081
same,EIF4G2 log2FC,Gene 1982,0.237
same,EMD log2FC,Gene 2010,-0.178
same,ENSA log2FC,Gene 2029,-0.068
same,EPS8 log2FC,Gene 2059,0.516
same,ERCC2 log2FC,Gene 2068,-0.566
same,ERCC3 log2FC,Gene 2071,-0.084
same,ERCC4 log2FC,Gene 2072,0.186
same,ERF log2FC,Gene 2077,0.135
same,ERH log2FC,Gene 2079,-0.238
same,ERN1 log2FC,Gene 2081,-0.168
same,ETS1 log2FC,Gene 2113,-0.590
same,EZH2 log2FC,Gene 2146,0.722
same,FANCG log2FC,Gene 2189,-0.077
same,FEN1 log2FC,Gene 2237,-0.980
same,FER log2FC,Gene 2241,0.332
same,FGF2 log2FC,Gene 2247,0.202
same,FGF8 log2FC,Gene 2253,-0.131
same,FGF10 log2FC,Gene 2255,0.033
same,FGFR1 log2FC,Gene 2260,-0.387
same,FGFR3 log2FC,Gene 2261,-0.382
same,FGFR2 log2FC,Gene 2263,1.543
same,FHL1 log2FC,Gene 2273,0.046
same,FOXC1 log2FC,Gene 2296,-0.876
same,FOXM1 log2FC,Gene 2305,-0.360
same,FLNA log2FC,Gene 2316,-0.229
same,FNTB log2FC,Gene 2342,-0.574
same,GAS1 log2FC,Gene 2619,0.711
same,GAS2 log2FC,Gene 2620,0.183
same,GAS6 log2FC,Gene 2621,-0.052
same,GFI1 log2FC,Gene 2672,0.062
same,GNAI1 log2FC,Gene 2770,1.186
same,GNAI2 log2FC,Gene 2771,-0.343
same,GNAI3 log2FC,Gene 2773,0.669
same,SFN log2FC,Gene 2810,-1.182
same,GPR3 log2FC,Gene 2827,-0.277
same,GPS1 log2FC,Gene 2873,-0.145
same,GPS2 log2FC,Gene 2874,-0.087
same,GSK3B log2FC,Gene 2932,-0.607
same,GSPT1 log2FC,Gene 2935,-0.172
same,MSH6 log2FC,Gene 2956,0.235
same,GTF2H1 log2FC,Gene 2965,0.573
same,H2AFX log2FC,Gene 3014,-1.128
same,HCFC1 log2FC,Gene 3054,-0.769
same,HDAC1 log2FC,Gene 3065,-0.487
same,HDAC2 log2FC,Gene 3066,0.164
same,HGF log2FC,Gene 3082,-0.369
same,HHEX log2FC,Gene 3087,-0.222
same,FOXA1 log2FC,Gene 3169,0.031
same,HOXA13 log2FC,Gene 3209,0.081
same,HRAS log2FC,Gene 3265,-0.664
same,PRMT2 log2FC,Gene 3275,0.361
same,HES1 log2FC,Gene 3280,-1.195
same,HSF1 log2FC,Gene 3297,0.106
same,HSPA2 log2FC,Gene 3306,-1.351
same,HSP90AA1 log2FC,Gene 3320,1.066
same,ID2 log2FC,Gene 3398,1.025
same,ID3 log2FC,Gene 3399,-0.237
same,IFNG log2FC,Gene 3458,-0.055
same,IGF1 log2FC,Gene 3479,0.046
same,IGF1R log2FC,Gene 3480,0.075
same,IGF2 log2FC,Gene 3481,0.014
same,IL1A log2FC,Gene 3552,-0.044
same,IL1B log2FC,Gene 3553,-0.057
same,IL8 log2FC,Gene 3576,-1.203
same,IL12B log2FC,Gene 3593,-0.025
same,ILF3 log2FC,Gene 3609,-0.460
same,ILK log2FC,Gene 3611,-0.066
same,INCENP log2FC,Gene 3619,-0.174
same,ING2 log2FC,Gene 3622,0.424
same,INHA log2FC,Gene 3623,-0.101
same,INSM1 log2FC,Gene 3642,-0.209
same,INSR log2FC,Gene 3643,0.664
same,IRF6 log2FC,Gene 3664,0.370
same,ITGB1 log2FC,Gene 3688,0.722
same,JUN log2FC,Gene 3725,-0.912
same,JUNB log2FC,Gene 3726,-0.596
same,KIF11 log2FC,Gene 3832,0.922
same,KRT18 log2FC,Gene 3875,-0.481
same,STMN1 log2FC,Gene 3925,0.176
same,LIF log2FC,Gene 3976,-1.818
same,LIG1 log2FC,Gene 3978,-0.097
same,LIG3 log2FC,Gene 3980,-0.509
same,LLGL2 log2FC,Gene 3993,-0.345
same,LRP5 log2FC,Gene 4041,-0.510
same,MAD2L1 log2FC,Gene 4085,0.081
same,SMAD3 log2FC,Gene 4088,0.254
same,MCM3 log2FC,Gene 4172,-0.047
same,MCM5 log2FC,Gene 4174,-0.158
same,MCM7 log2FC,Gene 4176,0.104
same,MDM2 log2FC,Gene 4193,-0.059
same,MDM4 log2FC,Gene 4194,0.064
same,RAB8A log2FC,Gene 4218,-0.531
same,MIF log2FC,Gene 4282,0.242
same,MKI67 log2FC,Gene 4288,0.040
